What was measured:
Test in all cases: Greenhouse post-emergence herbicidal trial
[1] = system: ECHCG; format: in vivo, Echinochloa crus-galli; conditions: MSO or COC 1.25% where in mixture, scale 0-100
Description: (§1) The culture vessels used were plastic flowerpots filled, as substrate, with sandy loam comprising about 3% of humus. The seeds of the test plants were sown separated according to species.
(§2) For the post-emergence treatment, the test plants were initially cultivated to a height of 3-17 cm according to their habit and only then treated with the active compounds, which had been suspended or emulsified in water. To this end, the test plants were either sown directly and cultivated in the same vessels, or they were initially cultivated separately as seedlings and transplanted into the test vessels a few days prior to the treatment. According to the species, the plants were kept at temperatures of from 15° C. to 25° C. or from 20 to 35° C. The trial period extended over 3 weeks. During this time the plants were tended and their response to the individual treatments was evaluated.
(§3) The application in the greenhouse was carried out at a spray liquor application rate of 200 l/ha.

[2] = system: PANDI; format: in vivo, Panicum dichotomiflorum; conditions: PANDI; a) 25 g/ha, MSO or COC 1.25% where in mixture, scale 0-100
Description: as §1, §2, §3

[3] = system: PANMI; format: in vivo, Panicum milliaceum; conditions: PANMI; a) 12.5 g/ha, MSO or COC 1.25% where in mixture, scale 0-100
Description: as §1, §2, §3

[4] = system: SORBI; format: in vivo, Sorghum bicolor; conditions: SORBI; a) 25 g/ha, MSO or COC 1.25% where in mixture, scale 0-100
Description: as §1, §2, §3

[5] = system: SETVI; format: in vivo, Setaria viridis; conditions: SETVI; a) 12.5 g/ha, MSO or COC 1.25% where in mixture, scale 0-100
Description: as §1, §2, §3

[6] = system: AMBEL; format: in vivo, Ambrosia elatior; conditions: AMBEL; a) 3.125 g/ha, MSO or COC 1.25% where in mixture, scale 0-100
Description: as §1, §2, §3

[7] = system: HELAN; format: in vivo, Helianthus annua; conditions: HELAN; a) 6.25 g/ha, MSO or COC 1.25% where in mixture, scale 0-100
Description: as §1, §2, §3

[8] = system: SOLNI; format: in vivo, Solanum nigrum; conditions: SOLNI; a) 3.125 g/ha, MSO or COC 1.25% where in mixture, scale 0-100
Description: as §1, §2, §3

[9] = system: XANST; format: in vivo, Xanthium strumarium; conditions: XANST; a) 12.5 g/ha, MSO or COC 1.25% where in mixture, scale 0-100
Description: as §1, §2, §3

Cc1c(C(=O)c2cnn(C)c2O)ccc(S(C)(=O)=O)c1C1=NOCC1 [a)] gave an observed effect ([1]; ECHCG; a) 12.5 g/ha) of 0, an observed effect ([1]; ECHCG; a) 25 g/ha) of 0 and an observed effect [2] of 0. For the same compound, the observed effect [3] was 75, the observed effect [4] was 10 and the observed effect [5] was 60. For the same compound, the observed effect [6] was 60, the observed effect [7] was 30 and the observed effect [8] was 30. It also gave an observed effect [9] of 65.
